Data: ChEMBL document CHEMBL1149375, “Design and synthesis of dipeptidyl glutaminyl fluoromethyl ketones as potent severe acute respiratory syndrome coronovirus (SARS-CoV) inhibitors” (J Med Chem, 2006)
Square brackets hold non-standard residues; d marks the D form. Peptide text beside a SMILES is read from it. * marks the point of attachment. ξ: configuration not given here. Ile(3ξ) = CCC(C)[C@H](N)C(=O)O; ξE = NC(CCC(=O)O)C(=O)O; Cbz = O=C(OCc1ccccc1)*; CH2F = FC*

Columns and labels:
[1] = tested on: Vero; assay: Cytotoxicity against Vero (CCL81) cells; type: functional; details: Chlorocebus sabaeus
[2] = tested on: SARS-CoV; assay: Inhibitory activity against SARS coronavirus FFMI replication in vero (CCL81) cells; type: functional, organism-based; details: Severe acute respiratory syndrome-related coronavirus
[3] = tested on: SARS-CoV; assay: Inhibitory activity against SARS coronavirus 6109 replication in vero (CCL81) cells; type: functional, organism-based; details: Severe acute respiratory syndrome-related coronavirus
[4] = tested on: SARS-CoV; assay: Inhibitory activity against SARS coronavirus FFMI replication in Caco-2 cells; type: functional, organism-based; details: Severe acute respiratory syndrome-related coronavirus
[5] = tested on: Vero; assay: Selectivity index (CC50/EC50) in SARS coronavirus 6109 infected Vero cells; type: functional, Chlorocebus sabaeus
[6] = tested on: rhinovirus A2; assay: Antiviral activity against Human rhinovirus 2 in a cell based assay; type: functional, organism-based

CC(C)C[C@H](NC(=O)OCc1ccccc1)C(=O)NC(CCC(=O)N(C)C)C(=O)CF (stereo partly drawn) (Cbz-Leu-[ξE](NMe2)-CH2F)
CC50 [1]: > 100 µM
EC50 [2]: 3.6 µM
EC50 [3]: 2.5 µM
EC50 [4]: 2.4 µM
Selectivity index [5]: >40
EC50 [6]: > 100 µg/mL

CC(C)[C@H](NC(=O)OCc1ccccc1)C(=O)NC(CC(=O)O)C(=O)CF (stereo not given in full)
CC50 [1]: > 100 µM
EC50 [2]: > 100 µM
EC50 [3]: > 100 µM
EC50 [4]: > 100 µM

CN(C)C(=O)CCC(NC(=O)CNC(=O)OCc1ccccc1)C(=O)CF (stereo not drawn) (Cbz-Gly-[ξE](NMe2)-CH2F)
CC50 [1]: > 100 µM
EC50 [2]: > 100 µM
EC50 [3]: > 100 µM
EC50 [4]: > 100 µM

CC(C)[C@H](NC(=O)OCc1ccccc1)C(=O)NC(CCC(=O)N(C)C)C(=O)CF (stereo partly drawn) (Cbz-Val-[ξE](NMe2)-CH2F)
CC50 [1]: > 100 µM
EC50 [2]: 6.2 µM
EC50 [3]: 6.6 µM
EC50 [4]: 12.6 µM
Selectivity index [5]: >15
EC50 [6]: > 100 µg/mL

CCC(C)[C@H](NC(=O)OCc1ccccc1)C(=O)NC(CCC(=O)N(C)C)C(=O)CF (stereo not given in full) (Cbz-[Ile(3ξ)]-[ξE](NMe2)-CH2F)
CC50 [1]: > 100 µM
EC50 [2]: 8.9 µM
EC50 [3]: 5.3 µM
EC50 [4]: 8.8 µM
Selectivity index [5]: >18
EC50 [6]: > 100 µg/mL

C[C@H](NC(=O)OCc1ccccc1)C(=O)NC(CCC(=O)N(C)C)C(=O)CF (stereo partly drawn) (Cbz-Ala-[ξE](NMe2)-CH2F)
CC50 [1]: > 100 µM
EC50 [2]: > 100 µM
EC50 [3]: > 100 µM
EC50 [4]: > 100 µM
